Test results: PubChem BioAssay AID256 (DTP/NCI, 2004)
“And” between values parts separate entries of the source, which are not always exact repeats. Equal entries are not always repeated. Toxic doses and inconclusive results are not listed. The calls were made as follows: active = survival T/C of 150% or more; inactive = T/C below 125% in these data.

Test system: CD2F1 mice, L1210 leukemia ip, survival T/C
Assay: NCI In Vivo Anticancer Drug Screen. Data for tumor model L1210 Leukemia (intraperitoneal) in CD2F1 (CDF1) mice
Conditions: endpoint: mean survival time, higher = longer survival
Summary of the method: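 Ratio T/C, where T is the treated-group value and C the vehicle-dosed control value, from mice implanted with a transplantable tumor.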

[1] = dose: 25.0 mg/kg/injection, schedule: Q01DX009 (ip), vehicle: saline with Tween-80
[2] = dose: 100.0 mg/kg/injection, schedule: Q01DX009 (ip), vehicle: saline with Tween-80
[3] = dose: 100.0 mg/kg/injection, schedule: Q04DX003 (ip), vehicle: saline with Tween-80
[4] = dose: 200.0 mg/kg/injection, schedule: Q04DX003 (ip), vehicle: saline with Tween-80
[5] = dose: 400.0 mg/kg/injection, schedule: Q04DX003 (ip), vehicle: saline with Tween-80
[6] = dose: 200.0 mg/kg/injection, schedule: Q01DX009 (ip), vehicle: saline with Tween-80
[7] = dose: 400.0 mg/kg/injection, schedule: Q01DX009 (ip), vehicle: saline with Tween-80

Measured: T/C

CCCCCCCCCCCCCCCCCC[N+]1(C)CCOCC1
inactive: dose: 6.25 mg/kg/injection, schedule: Q04DX002 (ip), vehicle: Klucel (hydroxypropylcellulose) (HPC) 95 % of control | dose: 12.5 mg/kg/injection, schedule: Q04DX002 (ip), vehicle: Klucel (hydroxypropylcellulose) (HPC) 91 % of control | dose: 25.0 mg/kg/injection, schedule: Q04DX002 (ip), vehicle: Klucel (hydroxypropylcellulose) (HPC) 90 % of control and 98 % of control | dose: 100.0 mg/kg/injection, schedule: Q04DX002 (ip), vehicle: Klucel (hydroxypropylcellulose) (HPC) 101 % of control

CN(N)c1cccc2c1CCCC2
inactive: [1] 106 % of control | dose: 25.0 mg/kg/injection, schedule: Q04DX003 (ip), vehicle: saline with Tween-80 97 % of control | dose: 50.0 mg/kg/injection, schedule: Q01DX009 (ip), vehicle: saline with Tween-80 103 % of control | dose: 50.0 mg/kg/injection, schedule: Q04DX003 (ip), vehicle: saline with Tween-80 102 % of control | [2] 105 % of control | [3] 93 % of control and 102 % of control

CC(=O)CC(OC(C)=O)(C(F)(F)F)C(F)(F)F
inactive: dose: 25.0 mg/kg/injection, schedule: Q04DX002 (ip), vehicle: saline 98 % of control | dose: 50.0 mg/kg/injection, schedule: Q04DX002 (ip), vehicle: saline 102 % of control | dose: 100.0 mg/kg/injection, schedule: Q04DX003 (ip), vehicle: Klucel (hydroxypropylcellulose) (HPC) 90 % of control

O/N=C/c1cc[n+](CCC[n+]2ccc(/C=N/O)cc2)cc1
inactive: dose: 5.0 mg/kg/injection, schedule: Q01DX009 (ip), vehicle: saline sonified 98 % of control | dose: 5.0 mg/kg/injection, schedule: Q04DX003 (ip), vehicle: saline 103 % of control | dose: 10.0 mg/kg/injection, schedule: Q01DX009 (ip), vehicle: saline sonified 98 % of control | dose: 10.0 mg/kg/injection, schedule: Q04DX003 (ip), vehicle: saline 105 % of control | dose: 20.0 mg/kg/injection, schedule: Q01DX009 (ip), vehicle: saline sonified 95 % of control | dose: 20.0 mg/kg/injection, schedule: Q04DX003 (ip), vehicle: saline 101 % of control

O=C1OC2CC1CCC2Br (centres undefined)
inactive: [3] 94 % of control | [4] 94 % of control | [5] 97 % of control

Oc1ccccc1/C=N\N=C\c1ccccc1O
inactive: dose: 100.0 mg/kg/injection, schedule: Q01DX001 (ip), vehicle: saline with Tween-80 97 % of control | dose: 200.0 mg/kg/injection, schedule: Q01DX001 (ip), vehicle: saline with Tween-80 106 % of control | dose: 400.0 mg/kg/injection, schedule: Q01DX001 (ip), vehicle: saline with Tween-80 100 % of control

CSc1nc(=O)[nH]c2c1c1c(N)ncnc1n2C1OC(CO)C(O)C1O (centres undefined)
inactive: dose: 12.5 mg/kg/injection, schedule: Q01DX005 (ip), vehicle: distilled water + Tween-80 104 % of control | dose: 25.0 mg/kg/injection, schedule: Q01DX005 (ip), vehicle: distilled water + Tween-80 97 % of control | dose: 50.0 mg/kg/injection, schedule: Q01DX005 (ip), vehicle: distilled water + Tween-80 104 % of control | dose: 100.0 mg/kg/injection, schedule: Q01DX005 (ip), vehicle: distilled water + Tween-80 100 % of control | dose: 200.0 mg/kg/injection, schedule: Q01DX005 (ip), vehicle: distilled water + Tween-80 104 % of control

CC(C)SC(C(=O)O)(c1ccccc1)c1ccccc1
inactive: dose: 75.0 mg/kg/injection, schedule: Q01DX001 (ip), vehicle: other 100 % of control | dose: 150.0 mg/kg/injection, schedule: Q01DX001 (ip), vehicle: other 98 % of control | dose: 300.0 mg/kg/injection, schedule: Q01DX001 (ip), vehicle: other 90 % of control

O=c1[nH][nH]c2ccccc12
inactive: [3] 98 % of control | [4] 94 % of control | [5] 98 % of control

CCOC(=O)Nc1ccc(F)cc1C
inactive: [3] 97 % of control | [4] 97 % of control | [5] 95 % of control

CC1C([N+]2(C)CCCCC2)CS1(=O)=O (centres undefined)
inactive: dose: 100.0 mg/kg/injection, schedule: Q04DX002 (ip), vehicle: saline 103 % of control | dose: 200.0 mg/kg/injection, schedule: Q04DX002 (ip), vehicle: saline 100 % of control | dose: 400.0 mg/kg/injection, schedule: Q04DX002 (ip), vehicle: saline 95 % of control

CCCCC(CC)C(=O)[O][Pb]([CH3])([CH3])[CH3] (centres undefined)
inactive: dose: 5.0 mg/kg/injection, schedule: Q04DX003 (ip), vehicle: saline with Tween-80 97 % of control | dose: 10.0 mg/kg/injection, schedule: Q04DX003 (ip), vehicle: saline with Tween-80 98 % of control

COS(=O)C(c1ccccc1)C(c1ccccc1)C(O)c1ccccc1 (centres undefined)
inactive: [2] 90 % of control | [6] 90 % of control | [7] 95 % of control

NOCc1cc(Cl)sc1Cl
inactive: [3] 112 % of control | [4] 121 % of control

[Cl][Hg][c]1ccco1
inactive: dose: 1.25 mg/kg/injection, schedule: Q01DX001 (ip), vehicle: Klucel (hydroxypropylcellulose) (HPC) 100 % of control | dose: 2.5 mg/kg/injection, schedule: Q01DX001 (ip), vehicle: Klucel (hydroxypropylcellulose) (HPC) 96 % of control | dose: 5.0 mg/kg/injection, schedule: Q01DX001 (ip), vehicle: Klucel (hydroxypropylcellulose) (HPC) 97 % of control

CCC(C)NC(=O)C1C2CCC(C2)C1C(=O)NC(C)CC (centres undefined)
inactive: [3] 98 % of control | [4] 98 % of control | [5] 102 % of control

N#CSCc1ccc(Cl)cc1
inactive: dose: 6.25 mg/kg/injection, schedule: Q01DX009 (ip), vehicle: saline with Tween-80 98 % of control | dose: 12.5 mg/kg/injection, schedule: Q01DX009 (ip), vehicle: saline with Tween-80 96 % of control | [1] 106 % of control

CCc1ccc(NC(=O)c2cccc(Cl)c2)cc1
inactive: [2] 93 % of control | [3] 95 % of control | [6] 109 % of control | [4] 98 % of control | [7] 98 % of control | [5] 98 % of control

CO[C@@]12[C@H](COC(N)=O)C3=C(C(=O)C(C)=C(N)C3=O)N1C[C@H]1[C@@H]2N1C(=O)[C@@H]1N2C(=O)[C@@H](NC(=O)Cc3ccccc3)[C@H]2SC1(C)C
inactive: dose: 25.0 mg/kg/injection, schedule: Q01DX001 (ip), vehicle: carboxymethylcellulose (CMC) 109 % of control | dose: 25.0 mg/kg/injection, schedule: Q01DX007 (ip), vehicle: carboxymethylcellulose (CMC) 120 % of control | dose: 25.0 mg/kg/injection, schedule: Q01DX007 (oral), vehicle: carboxymethylcellulose (CMC) 100 % of control | dose: 50.0 mg/kg/injection, schedule: Q01DX001 (ip), vehicle: carboxymethylcellulose (CMC) 113 % of control | dose: 50.0 mg/kg/injection, schedule: Q01DX007 (ip), vehicle: carboxymethylcellulose (CMC) 116 % of control | dose: 50.0 mg/kg/injection, schedule: Q01DX007 (oral), vehicle: carboxymethylcellulose (CMC) 96 % of control | dose: 100.0 mg/kg/injection, schedule: Q01DX001 (ip), vehicle: carboxymethylcellulose (CMC) 111 % of control | dose: 200.0 mg/kg/injection, schedule: Q01DX001 (ip), vehicle: carboxymethylcellulose (CMC) 111 % of control | dose: 400.0 mg/kg/injection, schedule: Q01DX001 (ip), vehicle: carboxymethylcellulose (CMC) 111 % of control

CCOC(=O)CNC(=O)Sc1ccc(C(C)(C)C)cc1
inactive: dose: 12.5 mg/kg/injection, schedule: Q01DX009 (ip), vehicle: Klucel (hydroxypropylcellulose) (HPC) 96 % of control and 105 % of control | dose: 25.0 mg/kg/injection, schedule: Q01DX009 (ip), vehicle: Klucel (hydroxypropylcellulose) (HPC) 101 % of control and 105 % of control | dose: 50.0 mg/kg/injection, schedule: Q01DX009 (ip), vehicle: Klucel (hydroxypropylcellulose) (HPC) 101 % of control and 102 % of control | dose: 100.0 mg/kg/injection, schedule: Q01DX009 (ip), vehicle: Klucel (hydroxypropylcellulose) (HPC) 100 % of control and 105 % of control | dose: 200.0 mg/kg/injection, schedule: Q01DX009 (ip), vehicle: Klucel (hydroxypropylcellulose) (HPC) 100 % of control and 103 % of control | dose: 400.0 mg/kg/injection, schedule: Q01DX009 (ip), vehicle: Klucel (hydroxypropylcellulose) (HPC) 97 % of control

O=[N+]([O-])O.[NH-]C1CCCCC1[NH-].[NH-]C1CCCCC1[NH-].[Ni+2] (centres undefined)
inactive: dose: 50.0 mg/kg/injection, schedule: Q04DX002 (ip), vehicle: saline with Tween-80 110 % of control | dose: 100.0 mg/kg/injection, schedule: Q04DX002 (ip), vehicle: saline with Tween-80 113 % of control

CC(=O)C(C)(O)C(C)(C)C (centres undefined)
inactive: dose: 100.0 mg/kg/injection, schedule: Q04DX003 (ip), vehicle: saline 95 % of control | dose: 200.0 mg/kg/injection, schedule: Q04DX003 (ip), vehicle: saline 93 % of control | dose: 400.0 mg/kg/injection, schedule: Q04DX003 (ip), vehicle: saline 98 % of control
